Results reported in the supplement of paper PMC13207355.

Tests used:
Conditions in all cases: exposure time: 72 h
E21 [1] = patient-derived glioblastoma stem cells of mesenchymal subtype; experiment: phenotypic distance (Euclidean, principal components) from DMSO controls (arbitrary units); higher = stronger morphological change
E31 [2] = patient-derived glioblastoma stem cells of proneural subtype; experiment: as above
E28 [3] = patient-derived glioblastoma stem cells of classical subtype; experiment: as above
FT3469 [4] = normal neural stem cell line; experiment: as above
E13 [5] = patient-derived glioblastoma stem cells of classical subtype; experiment: as above
E34 [6] = patient-derived glioblastoma stem cells of proneural subtype; experiment: as above
E57 [7] = patient-derived glioblastoma stem cells of mesenchymal subtype; experiment: as above
E21 [8] = experiment: surviving fraction (nuclei count normalised to DMSO); higher = more cells surviving (less toxic)
E31 [9] = experiment: as above
E28 [10] = experiment: as above
FT3469 [11] = experiment: as above
E13 [12] = experiment: as above
E34 [13] = experiment: as above
E57 [14] = experiment: as above
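Wherever phenotypic distance (Euclidean, principal components) from DMSO controls is given: cell Painting imaging in 384-well plates, CellProfiler features reduced to at least 20 principal components, Euclidean distance versus same-plate DMSO vehicle wells (0.1% v/v), median over six images per well.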
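Wherever surviving fraction (nuclei count normalised to DMSO) is given: nuclei counted by high-content imaging of Hoechst-stained cells in laminin-coated 384-well plates, relative to 0.1% DMSO vehicle wells, with staurosporine as cell-death control.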

CCCCCCCCCCCCCCCC[N+](C)(C)CCN(Cc1ccc(OC)cc1)c1ncccn1 [Thonzonium bromide]
Conditions	phenotypic distance	surviving fraction
E13 [5], 4.1 nM	0.516	–
E13 [5], 12.3 nM	0.581	–
E13 [5], 37 nM	0.657	–
E13 [5], 111.1 nM	1.02	–
E13 [5], 333.3 nM	1.87	–
E13 [5], 1000 nM	1.97	–
E13 [5], 3000 nM	5.26	–
E13 [12], 4.1 nM	–	1.04
E13 [12], 12.3 nM	–	0.969
E13 [12], 37 nM	–	0.906
E13 [12], 111.1 nM	–	0.816
E13 [12], 333.3 nM	–	0.606
E13 [12], 1000 nM	–	0.555
E13 [12], 3000 nM	–	0.19
E21 [1], 4.1 nM	0.872	–
E21 [1], 12.3 nM	0.488	–
E21 [1], 37 nM	0.498	–
E21 [1], 111.1 nM	0.528	–
E21 [1], 333.3 nM	1.11	–
E21 [1], 1000 nM	1.7	–
E21 [1], 3000 nM	15.4	–
E21 [8], 4.1 nM	–	0.966
E21 [8], 12.3 nM	–	1.03
E21 [8], 37 nM	–	1.03
E21 [8], 111.1 nM	–	0.987
E21 [8], 333.3 nM	–	0.962
E21 [8], 1000 nM	–	0.854
E21 [8], 3000 nM	–	0.00843
E28 [3], 4.1 nM	0.34	–
E28 [3], 12.3 nM	0.451	–
E28 [3], 37 nM	0.622	–
E28 [3], 111.1 nM	1.04	–
E28 [3], 333.3 nM	0.781	–
E28 [3], 1000 nM	1.5	–
E28 [3], 3000 nM	13.5	–
E28 [10], 4.1 nM	–	1.08
E28 [10], 12.3 nM	–	0.936
E28 [10], 37 nM	–	1.09
E28 [10], 111.1 nM	–	1.01
E28 [10], 333.3 nM	–	0.814
E28 [10], 1000 nM	–	0.696
E28 [10], 3000 nM	–	0.00389
E31 [2], 4.1 nM	0.672	–
E31 [2], 12.3 nM	0.609	–
E31 [2], 37 nM	0.797	–
E31 [2], 111.1 nM	1.23	–
E31 [2], 333.3 nM	1.32	–
E31 [2], 1000 nM	1.09	–
E31 [2], 3000 nM	9.07	–
E31 [9], 4.1 nM	–	1.16
E31 [9], 12.3 nM	–	1.1
E31 [9], 37 nM	–	1.09
E31 [9], 111.1 nM	–	0.966
E31 [9], 333.3 nM	–	0.882
E31 [9], 1000 nM	–	0.731
E31 [9], 3000 nM	–	0.034
E34 [6], 4.1 nM	0.779	–
E34 [6], 12.3 nM	0.535	–
E34 [6], 37 nM	0.676	–
E34 [6], 111.1 nM	0.729	–
E34 [6], 333.3 nM	1.9	–
E34 [6], 1000 nM	1.38	–
E34 [6], 3000 nM	10.2	–
E34 [13], 4.1 nM	–	1.03
E34 [13], 12.3 nM	–	0.954
E34 [13], 37 nM	–	1.04
E34 [13], 111.1 nM	–	0.965
E34 [13], 333.3 nM	–	0.876
E34 [13], 1000 nM	–	0.699
E34 [13], 3000 nM	–	0.0452
E57 [7], 4.1 nM	0.446	–
E57 [7], 12.3 nM	0.566	–
E57 [7], 37 nM	0.663	–
E57 [7], 111.1 nM	1.07	–
E57 [7], 333.3 nM	1.33	–
E57 [7], 1000 nM	1.72	–
E57 [7], 3000 nM	9.5	–
E57 [14], 4.1 nM	–	0.925
E57 [14], 12.3 nM	–	1.04
E57 [14], 37 nM	–	1.04
E57 [14], 111.1 nM	–	1.04
E57 [14], 333.3 nM	–	1.13
E57 [14], 1000 nM	–	1.01
E57 [14], 3000 nM	–	0.00426
FT3469 [4], 4.1 nM	0.743	–
FT3469 [4], 12.3 nM	3.16	–
FT3469 [4], 37 nM	0.638	–
FT3469 [4], 111.1 nM	0.6	–
FT3469 [4], 333.3 nM	0.582	–
FT3469 [4], 1000 nM	0.946	–
FT3469 [4], 3000 nM	11.4	–
FT3469 [11], 4.1 nM	–	0.999
FT3469 [11], 12.3 nM	–	0.934
FT3469 [11], 37 nM	–	0.968
FT3469 [11], 111.1 nM	–	0.955
FT3469 [11], 333.3 nM	–	0.924
FT3469 [11], 1000 nM	–	0.859
FT3469 [11], 3000 nM	–	0.00702

Clc1ccc(C(Cn2ccnc2)OCc2ccsc2Cl)c(Cl)c1 (stereo unspecified) [Tioconazole]
Conditions	phenotypic distance	surviving fraction
E13 [5], 4.1 nM	0.434	–
E13 [5], 12.3 nM	0.591	–
E13 [5], 37 nM	0.952	–
E13 [5], 111.1 nM	0.719	–
E13 [5], 333.3 nM	0.807	–
E13 [5], 1000 nM	0.71	–
E13 [5], 3000 nM	0.892	–
E13 [12], 4.1 nM	–	0.996
E13 [12], 12.3 nM	–	0.959
E13 [12], 37 nM	–	1.02
E13 [12], 111.1 nM	–	0.98
E13 [12], 333.3 nM	–	0.992
E13 [12], 1000 nM	–	1.01
E13 [12], 3000 nM	–	0.857
E21 [1], 4.1 nM	0.639	–
E21 [1], 12.3 nM	0.48	–
E21 [1], 37 nM	0.312	–
E21 [1], 111.1 nM	0.6	–
E21 [1], 333.3 nM	0.27	–
E21 [1], 1000 nM	0.663	–
E21 [1], 3000 nM	1.33	–
E21 [8], 4.1 nM	–	1.05
E21 [8], 12.3 nM	–	1.01
E21 [8], 37 nM	–	0.998
E21 [8], 111.1 nM	–	1.03
E21 [8], 333.3 nM	–	1
E21 [8], 1000 nM	–	0.876
E21 [8], 3000 nM	–	0.887
E28 [3], 4.1 nM	0.718	–
E28 [3], 12.3 nM	0.644	–
E28 [3], 37 nM	0.417	–
E28 [3], 111.1 nM	0.495	–
E28 [3], 333.3 nM	0.688	–
E28 [3], 1000 nM	0.954	–
E28 [3], 3000 nM	0.695	–
E28 [10], 4.1 nM	–	1.06
E28 [10], 12.3 nM	–	1.11
E28 [10], 37 nM	–	1.05
E28 [10], 111.1 nM	–	1.13
E28 [10], 333.3 nM	–	1.03
E28 [10], 1000 nM	–	1.02
E28 [10], 3000 nM	–	0.843
E31 [2], 4.1 nM	0.731	–
E31 [2], 12.3 nM	0.483	–
E31 [2], 37 nM	0.639	–
E31 [2], 111.1 nM	0.611	–
E31 [2], 333.3 nM	0.715	–
E31 [2], 1000 nM	0.918	–
E31 [2], 3000 nM	1.46	–
E31 [9], 4.1 nM	–	0.857
E31 [9], 12.3 nM	–	0.993
E31 [9], 37 nM	–	1.08
E31 [9], 111.1 nM	–	1.11
E31 [9], 333.3 nM	–	0.972
E31 [9], 1000 nM	–	1.02
E31 [9], 3000 nM	–	0.969
E34 [6], 4.1 nM	0.558	–
E34 [6], 12.3 nM	0.535	–
E34 [6], 37 nM	0.702	–
E34 [6], 111.1 nM	0.614	–
E34 [6], 333.3 nM	0.634	–
E34 [6], 1000 nM	0.943	–
E34 [6], 3000 nM	1.08	–
E34 [13], 4.1 nM	–	1.14
E34 [13], 12.3 nM	–	0.871
E34 [13], 37 nM	–	0.929
E34 [13], 111.1 nM	–	0.959
E34 [13], 333.3 nM	–	0.947
E34 [13], 1000 nM	–	0.894
E34 [13], 3000 nM	–	0.776
E57 [7], 4.1 nM	0.709	–
E57 [7], 12.3 nM	0.457	–
E57 [7], 37 nM	0.46	–
E57 [7], 111.1 nM	0.302	–
E57 [7], 333.3 nM	0.722	–
E57 [7], 1000 nM	0.606	–
E57 [7], 3000 nM	1.69	–
E57 [14], 4.1 nM	–	0.962
E57 [14], 12.3 nM	–	0.998
E57 [14], 37 nM	–	0.997
E57 [14], 111.1 nM	–	1.04
E57 [14], 333.3 nM	–	0.973
E57 [14], 1000 nM	–	0.922
E57 [14], 3000 nM	–	0.988
FT3469 [4], 4.1 nM	1.14	–
FT3469 [4], 12.3 nM	1.57	–
FT3469 [4], 37 nM	0.375	–
FT3469 [4], 111.1 nM	0.556	–
FT3469 [4], 333.3 nM	0.563	–
FT3469 [4], 1000 nM	0.69	–
FT3469 [4], 3000 nM	1.37	–
FT3469 [11], 4.1 nM	–	0.871
FT3469 [11], 12.3 nM	–	1.12
FT3469 [11], 37 nM	–	0.948
FT3469 [11], 111.1 nM	–	1.08
FT3469 [11], 333.3 nM	–	1.01
FT3469 [11], 1000 nM	–	0.829
FT3469 [11], 3000 nM	–	0.787
